Experimental data from BindingDB's records for doi:10.1111/j.1476-5381.1995.tb16628.x (Syntex Discovery Research, 1995).
pKi: −log10 of the molar value. Several values for one entry are separate records, joined by “and”; a condition that tells them apart may be missing. Equal entries are not always repeated.

Assays:
[1] = biological target: T1, Alpha-2A adrenergic receptor [16-465] (Rattus norvegicus, UniProt P22909)
T1 construct: 16-465
T1 sequence (P22909 whole entry): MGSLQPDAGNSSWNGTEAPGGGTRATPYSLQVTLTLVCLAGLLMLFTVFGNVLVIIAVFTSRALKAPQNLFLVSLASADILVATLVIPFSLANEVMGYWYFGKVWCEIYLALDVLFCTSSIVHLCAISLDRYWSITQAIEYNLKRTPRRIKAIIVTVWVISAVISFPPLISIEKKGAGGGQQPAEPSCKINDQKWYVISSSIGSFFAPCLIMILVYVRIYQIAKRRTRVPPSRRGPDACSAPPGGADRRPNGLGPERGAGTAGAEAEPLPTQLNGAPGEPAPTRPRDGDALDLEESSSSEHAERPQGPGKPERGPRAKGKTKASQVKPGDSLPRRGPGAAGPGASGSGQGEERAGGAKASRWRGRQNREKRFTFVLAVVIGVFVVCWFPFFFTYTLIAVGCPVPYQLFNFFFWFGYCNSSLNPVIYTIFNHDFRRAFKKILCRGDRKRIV

[2] = biological target: 5-hydroxytryptamine receptor 2A (Rattus norvegicus, UniProt P14842)
[3] = biological target: T2, 5-hydroxytryptamine receptor 1A (Rattus norvegicus, UniProt P19327)
T2 sequence (P19327 whole entry): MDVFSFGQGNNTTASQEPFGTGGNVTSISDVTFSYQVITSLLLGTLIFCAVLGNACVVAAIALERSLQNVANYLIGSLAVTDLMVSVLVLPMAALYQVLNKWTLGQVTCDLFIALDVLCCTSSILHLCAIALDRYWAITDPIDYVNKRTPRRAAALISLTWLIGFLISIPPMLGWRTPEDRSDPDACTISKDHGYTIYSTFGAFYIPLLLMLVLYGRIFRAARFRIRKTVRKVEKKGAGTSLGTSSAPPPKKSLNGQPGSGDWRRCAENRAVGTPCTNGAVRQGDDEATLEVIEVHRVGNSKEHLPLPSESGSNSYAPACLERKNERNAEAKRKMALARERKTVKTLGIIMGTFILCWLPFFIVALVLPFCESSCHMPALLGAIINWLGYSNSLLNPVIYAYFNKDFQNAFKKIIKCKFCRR

[4] = biological target: T3, Alpha-1B adrenergic receptor (Rattus norvegicus, UniProt P15823)
T3 sequence (P15823 whole entry): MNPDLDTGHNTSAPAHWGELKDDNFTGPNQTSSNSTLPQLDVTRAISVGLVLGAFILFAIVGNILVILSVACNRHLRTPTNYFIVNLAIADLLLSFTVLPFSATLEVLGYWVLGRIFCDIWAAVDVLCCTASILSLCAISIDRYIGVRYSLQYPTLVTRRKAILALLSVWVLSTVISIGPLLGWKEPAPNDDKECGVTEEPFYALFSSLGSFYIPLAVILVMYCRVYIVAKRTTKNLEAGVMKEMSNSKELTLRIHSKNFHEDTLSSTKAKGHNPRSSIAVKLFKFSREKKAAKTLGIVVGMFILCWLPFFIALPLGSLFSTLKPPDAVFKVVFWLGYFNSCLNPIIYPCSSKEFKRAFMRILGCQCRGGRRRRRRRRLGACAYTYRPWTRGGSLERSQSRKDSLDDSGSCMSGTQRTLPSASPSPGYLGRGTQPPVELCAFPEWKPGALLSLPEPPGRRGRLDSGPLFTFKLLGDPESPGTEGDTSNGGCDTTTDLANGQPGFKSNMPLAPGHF

[5] = biological target: Sigma non-opioid intracellular receptor 1 (Cavia porcellus, UniProt Q60492)
[6] = biological target: Beta-1 adrenergic receptor (Rattus norvegicus, UniProt P18090)
[7] = biological target: T4, Alpha-1A adrenergic receptor (Rattus norvegicus, UniProt P43140)
T4 sequence (P43140 whole entry): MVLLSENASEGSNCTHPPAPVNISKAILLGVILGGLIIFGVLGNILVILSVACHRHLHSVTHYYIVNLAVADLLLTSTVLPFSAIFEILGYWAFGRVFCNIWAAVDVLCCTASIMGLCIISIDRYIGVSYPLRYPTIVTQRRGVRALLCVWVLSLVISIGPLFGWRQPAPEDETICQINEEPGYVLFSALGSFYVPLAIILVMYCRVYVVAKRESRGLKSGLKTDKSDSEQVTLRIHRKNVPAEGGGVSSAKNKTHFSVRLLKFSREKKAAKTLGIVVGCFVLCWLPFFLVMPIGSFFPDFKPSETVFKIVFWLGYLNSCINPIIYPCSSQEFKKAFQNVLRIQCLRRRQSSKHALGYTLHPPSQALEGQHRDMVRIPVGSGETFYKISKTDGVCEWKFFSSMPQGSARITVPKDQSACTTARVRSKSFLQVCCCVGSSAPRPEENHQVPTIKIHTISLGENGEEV

[8] = biological target: T5, 5-hydroxytryptamine receptor 2C (Rattus norvegicus, UniProt P08909)
T5 sequence (P08909 whole entry): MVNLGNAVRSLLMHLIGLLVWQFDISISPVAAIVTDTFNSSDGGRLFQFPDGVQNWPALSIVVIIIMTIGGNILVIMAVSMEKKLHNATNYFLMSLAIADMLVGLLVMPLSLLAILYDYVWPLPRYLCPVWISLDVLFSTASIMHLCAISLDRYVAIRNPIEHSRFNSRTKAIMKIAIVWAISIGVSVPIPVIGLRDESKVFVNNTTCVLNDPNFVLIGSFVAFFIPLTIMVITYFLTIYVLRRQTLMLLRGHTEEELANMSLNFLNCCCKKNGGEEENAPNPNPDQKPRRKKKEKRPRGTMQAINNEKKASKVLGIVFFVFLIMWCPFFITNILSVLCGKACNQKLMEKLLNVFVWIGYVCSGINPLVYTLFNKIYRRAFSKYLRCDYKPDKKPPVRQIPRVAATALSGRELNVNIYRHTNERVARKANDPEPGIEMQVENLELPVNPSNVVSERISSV

[9] = biological target: T6, 5-hydroxytryptamine receptor 3A (Rattus norvegicus, UniProt P35563)
T6 sequence (P35563 whole entry): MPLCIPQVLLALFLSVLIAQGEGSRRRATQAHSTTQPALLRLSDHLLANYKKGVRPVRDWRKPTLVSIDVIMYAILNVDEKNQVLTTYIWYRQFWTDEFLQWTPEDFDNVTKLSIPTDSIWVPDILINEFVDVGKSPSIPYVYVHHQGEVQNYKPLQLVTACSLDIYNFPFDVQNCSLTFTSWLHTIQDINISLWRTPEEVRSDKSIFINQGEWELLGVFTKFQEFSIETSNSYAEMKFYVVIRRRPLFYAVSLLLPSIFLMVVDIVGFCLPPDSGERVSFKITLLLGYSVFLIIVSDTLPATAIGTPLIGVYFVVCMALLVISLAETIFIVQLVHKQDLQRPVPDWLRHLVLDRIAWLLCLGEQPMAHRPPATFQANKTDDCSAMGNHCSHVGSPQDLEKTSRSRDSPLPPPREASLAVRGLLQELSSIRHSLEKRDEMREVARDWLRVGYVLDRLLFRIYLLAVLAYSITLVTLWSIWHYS

[10] = biological target: 5-hydroxytryptamine receptor 4 (Cavia porcellus, UniProt O70528)
[11] = biological target: T7, Alpha-2B adrenergic receptor (Rattus norvegicus, UniProt P19328)
T7 sequence (P19328 whole entry): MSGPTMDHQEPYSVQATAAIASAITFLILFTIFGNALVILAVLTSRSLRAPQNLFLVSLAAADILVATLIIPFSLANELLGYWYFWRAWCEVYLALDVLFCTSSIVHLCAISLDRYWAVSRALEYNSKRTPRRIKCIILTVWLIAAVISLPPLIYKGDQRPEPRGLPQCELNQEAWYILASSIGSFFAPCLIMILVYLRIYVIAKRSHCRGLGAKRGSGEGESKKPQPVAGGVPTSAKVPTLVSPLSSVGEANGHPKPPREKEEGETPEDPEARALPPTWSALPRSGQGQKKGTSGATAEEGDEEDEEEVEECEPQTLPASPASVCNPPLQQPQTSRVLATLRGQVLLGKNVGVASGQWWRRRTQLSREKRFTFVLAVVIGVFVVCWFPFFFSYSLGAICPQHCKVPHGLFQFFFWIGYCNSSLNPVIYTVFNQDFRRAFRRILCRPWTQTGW

[12] = biological target: T8, Muscarinic acetylcholine receptor M2 (Rattus norvegicus, UniProt P10980)
T8 sequence (P10980 whole entry): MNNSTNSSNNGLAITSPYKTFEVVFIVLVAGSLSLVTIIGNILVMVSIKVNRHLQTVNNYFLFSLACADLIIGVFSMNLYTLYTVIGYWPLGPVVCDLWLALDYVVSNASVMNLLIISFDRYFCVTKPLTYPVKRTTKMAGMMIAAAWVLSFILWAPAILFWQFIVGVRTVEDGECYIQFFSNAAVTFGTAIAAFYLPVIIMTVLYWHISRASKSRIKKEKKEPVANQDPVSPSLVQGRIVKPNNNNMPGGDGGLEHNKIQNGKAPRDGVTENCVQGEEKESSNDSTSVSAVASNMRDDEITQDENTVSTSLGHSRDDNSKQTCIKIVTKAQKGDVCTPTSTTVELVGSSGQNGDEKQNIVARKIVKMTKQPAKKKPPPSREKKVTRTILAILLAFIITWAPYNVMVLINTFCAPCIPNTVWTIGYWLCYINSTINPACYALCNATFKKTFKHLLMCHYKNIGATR

[13] = biological target: T9, Muscarinic acetylcholine receptor M1 (Rattus norvegicus, UniProt P08482)
T9 sequence (P08482 whole entry): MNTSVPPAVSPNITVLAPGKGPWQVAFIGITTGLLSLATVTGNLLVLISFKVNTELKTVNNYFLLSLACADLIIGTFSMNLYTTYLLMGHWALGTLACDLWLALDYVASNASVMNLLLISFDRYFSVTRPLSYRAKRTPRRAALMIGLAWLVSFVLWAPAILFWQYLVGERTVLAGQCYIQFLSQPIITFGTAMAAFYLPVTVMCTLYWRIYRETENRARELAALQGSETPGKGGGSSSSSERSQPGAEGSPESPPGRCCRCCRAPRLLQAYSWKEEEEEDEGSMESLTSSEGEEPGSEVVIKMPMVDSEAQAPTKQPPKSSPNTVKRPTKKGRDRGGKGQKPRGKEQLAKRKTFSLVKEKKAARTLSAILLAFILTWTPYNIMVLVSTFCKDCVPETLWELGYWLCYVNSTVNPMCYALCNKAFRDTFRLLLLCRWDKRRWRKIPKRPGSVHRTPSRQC

[14] = biological target: D(1A) dopamine receptor (Macaca mulatta, UniProt O77680)
[15] = biological target: D(2) dopamine receptor (Sus scrofa, UniProt F1SM69)
[16] = biological target: Beta-2 adrenergic receptor (Rattus norvegicus, UniProt P10608)
Beta-2 adrenergic receptor, sequence (P10608 whole entry): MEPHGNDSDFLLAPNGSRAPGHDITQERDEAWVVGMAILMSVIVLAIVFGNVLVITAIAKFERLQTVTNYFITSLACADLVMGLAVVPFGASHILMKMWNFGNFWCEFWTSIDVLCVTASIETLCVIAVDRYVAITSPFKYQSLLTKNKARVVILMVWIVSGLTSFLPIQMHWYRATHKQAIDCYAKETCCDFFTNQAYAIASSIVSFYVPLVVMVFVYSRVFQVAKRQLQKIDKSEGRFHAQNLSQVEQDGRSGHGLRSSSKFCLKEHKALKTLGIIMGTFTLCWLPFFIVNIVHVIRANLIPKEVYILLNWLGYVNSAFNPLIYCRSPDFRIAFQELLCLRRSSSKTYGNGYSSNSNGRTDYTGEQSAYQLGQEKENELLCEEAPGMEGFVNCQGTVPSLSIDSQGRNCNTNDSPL

Sigma non-opioid intracellular receptor 1, sequence (Q60492 whole entry): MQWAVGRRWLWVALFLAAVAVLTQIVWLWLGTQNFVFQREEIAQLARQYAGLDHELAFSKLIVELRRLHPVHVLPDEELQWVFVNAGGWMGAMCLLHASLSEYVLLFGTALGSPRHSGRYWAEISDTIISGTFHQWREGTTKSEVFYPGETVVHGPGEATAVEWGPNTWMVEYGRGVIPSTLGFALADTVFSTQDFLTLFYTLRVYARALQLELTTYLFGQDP
5-hydroxytryptamine receptor 4, sequence (O70528 whole entry): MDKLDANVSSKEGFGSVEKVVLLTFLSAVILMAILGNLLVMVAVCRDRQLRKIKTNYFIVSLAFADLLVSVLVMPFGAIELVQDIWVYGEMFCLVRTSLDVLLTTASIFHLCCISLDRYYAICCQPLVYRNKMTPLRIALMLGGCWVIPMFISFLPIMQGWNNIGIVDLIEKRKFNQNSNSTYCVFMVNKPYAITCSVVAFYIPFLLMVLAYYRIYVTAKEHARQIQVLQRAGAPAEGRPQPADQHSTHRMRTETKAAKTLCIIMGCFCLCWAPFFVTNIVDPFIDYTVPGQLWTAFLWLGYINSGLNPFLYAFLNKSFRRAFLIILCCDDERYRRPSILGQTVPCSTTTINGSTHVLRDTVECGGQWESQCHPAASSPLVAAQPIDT
D(2) dopamine receptor, sequence (F1SM69 whole entry): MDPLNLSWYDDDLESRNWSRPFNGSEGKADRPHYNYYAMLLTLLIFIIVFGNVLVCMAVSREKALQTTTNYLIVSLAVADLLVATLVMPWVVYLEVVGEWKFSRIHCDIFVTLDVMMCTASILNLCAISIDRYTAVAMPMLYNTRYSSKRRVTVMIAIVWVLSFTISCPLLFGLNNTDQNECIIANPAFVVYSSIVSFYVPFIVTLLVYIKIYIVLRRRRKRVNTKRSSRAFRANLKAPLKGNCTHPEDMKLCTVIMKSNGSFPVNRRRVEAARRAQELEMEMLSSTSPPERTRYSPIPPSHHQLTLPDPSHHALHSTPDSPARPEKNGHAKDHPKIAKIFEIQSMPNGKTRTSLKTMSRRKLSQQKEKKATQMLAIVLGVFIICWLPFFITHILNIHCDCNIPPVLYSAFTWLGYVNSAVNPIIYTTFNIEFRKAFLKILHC
D(1A) dopamine receptor, sequence (O77680 whole entry): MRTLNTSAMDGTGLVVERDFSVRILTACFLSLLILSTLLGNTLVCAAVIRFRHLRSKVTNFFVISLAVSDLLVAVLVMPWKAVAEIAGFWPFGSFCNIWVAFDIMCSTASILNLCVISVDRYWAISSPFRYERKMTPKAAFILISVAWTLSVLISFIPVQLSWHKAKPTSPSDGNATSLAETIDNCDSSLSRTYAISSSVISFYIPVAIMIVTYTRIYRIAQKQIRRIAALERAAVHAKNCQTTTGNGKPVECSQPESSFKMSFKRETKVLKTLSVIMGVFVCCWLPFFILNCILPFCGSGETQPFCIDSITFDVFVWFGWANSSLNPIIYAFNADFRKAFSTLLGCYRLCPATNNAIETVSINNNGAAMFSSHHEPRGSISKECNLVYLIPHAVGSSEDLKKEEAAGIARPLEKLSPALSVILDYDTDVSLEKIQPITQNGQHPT
5-hydroxytryptamine receptor 2A, sequence (P14842 whole entry): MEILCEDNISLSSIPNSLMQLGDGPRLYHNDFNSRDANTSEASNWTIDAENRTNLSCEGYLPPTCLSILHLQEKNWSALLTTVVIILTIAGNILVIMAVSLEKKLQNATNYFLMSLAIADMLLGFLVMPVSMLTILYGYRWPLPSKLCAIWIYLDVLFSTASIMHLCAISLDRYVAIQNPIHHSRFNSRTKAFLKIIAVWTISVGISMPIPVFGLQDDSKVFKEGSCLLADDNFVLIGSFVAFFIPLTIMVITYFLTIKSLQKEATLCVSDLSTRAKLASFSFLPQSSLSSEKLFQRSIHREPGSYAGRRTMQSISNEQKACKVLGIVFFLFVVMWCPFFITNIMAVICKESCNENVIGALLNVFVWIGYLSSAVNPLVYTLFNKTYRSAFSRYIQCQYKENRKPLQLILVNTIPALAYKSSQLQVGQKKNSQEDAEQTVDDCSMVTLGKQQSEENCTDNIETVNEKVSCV
Beta-1 adrenergic receptor, sequence (P18090 whole entry): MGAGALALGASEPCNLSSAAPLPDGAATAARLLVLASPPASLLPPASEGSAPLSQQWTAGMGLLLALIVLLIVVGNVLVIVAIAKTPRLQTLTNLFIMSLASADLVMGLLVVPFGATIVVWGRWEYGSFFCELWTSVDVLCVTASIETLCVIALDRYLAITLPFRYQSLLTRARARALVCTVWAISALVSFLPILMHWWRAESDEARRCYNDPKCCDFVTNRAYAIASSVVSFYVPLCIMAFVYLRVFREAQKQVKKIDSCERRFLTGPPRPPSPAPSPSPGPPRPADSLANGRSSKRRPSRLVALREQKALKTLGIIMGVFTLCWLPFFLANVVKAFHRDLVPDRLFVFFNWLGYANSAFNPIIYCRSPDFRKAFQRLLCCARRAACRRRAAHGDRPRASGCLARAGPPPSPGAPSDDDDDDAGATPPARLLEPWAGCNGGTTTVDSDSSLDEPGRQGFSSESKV

Row | pKi [1] | pKi [2] | pKi [3] | pKi [4] | pKi [5] | pKi [6] | pKi [7] | pKi [8] | pKi [9] | pKi [10] | pKi [11] | pKi [12] | pKi [13] | pKi [14] | pKi [15] | pKi [16] | SMILES
1 | < 5.00 | 6.00 | 5.70 | < 5.00 | 7.90 and 7.30 | < 5.00 | 6.40 | 5.70 | 5.60 and 5.90 | 8.80 | < 5.00 | < 5.00 | < 5.00 | < 5.00 | < 5.00 | < 5.00 | COc1cc(N)c(Cl)cc1C(=O)CCC1CCN(CCNS(C)(=O)=O)CC1 [CAS_133075]
2 | < 5.00 | 6.30 |  | 5.90 | 8.90 and 8.00 | < 5.00 | 6.70 | 6.10 | 6.40 and 5.90 | 8.70 | < 5.00 | 5.30 | 5.20 | < 5.00 | < 5.00 | < 5.00 | CCCCN1CCC(CCC(=O)c2cc(Cl)c(N)cc2OC)CC1 [CAS_183782]
